Calls of active or inactive are those of the source. The calls are words filed in the database; no cut-off is given here.
Columns and labels:
Mus musculus [1] = assay: Anticoagulant activity in C57BL/6 mouse model of non-occlusive venous thrombosis assessed as average IVC weight at 12 ug/g, sc treated for 1 hr prior to electrolytic injury and 24 hrs after injury (reference value: 31.5 +/- 2.3 mg); format: functional; settings: dose 12 µg/g, time 25 hrs
Coagulation factor X [2] = biological target: T1, Coagulation factor X (Homo sapiens, UniProt P00742); assay: Potency index, ratio of Enoxaparin IC50 to test compound IC50 for factor Xa (unknown origin) by ACTICHROME heparin assay
Mus musculus [3] = assay: Anticoagulant activity in C57BL/6 mouse model of non-occlusive venous thrombosis assessed as inhibition of factor Xa in plasma at 12 ug/g, sc treated for 1 hr prior to electrolytic injury and 24 hrs after injury; format: functional; settings: dose 12 µg/g, time 25 hrs
Mus musculus [4] = assay: Anticoagulant activity in C57BL/6 mouse model of non-occlusive venous thrombosis assessed as average bleeding time at 12 ug/g, sc treated for 1 hr prior to electrolytic injury and 24 hrs after injury (reference value: 81 +/- 3 mg); format: functional; settings: dose 12 µg/g, time 25 hrs
[5] = Stability of compound assessed as heparanase-mediated compound degradation by measuring retention time at 20 ug incubated overnight by LC-MS analysis (reference value: 10 mins); format: physicochemical; settings: dose 20 µg
Mus musculus [6] = assay: Anticoagulant activity in C57BL/6 mouse model of non-occlusive venous thrombosis assessed as average IVC weight at 4 ug/g, sc treated for 4 hrs prior to electrolytic injury and 24 hrs after injury (reference value: 31.5 +/- 2.3 mg); format: functional; settings: dose 4 µg/g, time 28 hrs
Coagulation factor X [7] = biological target: T1, Coagulation factor X; assay: Inhibition of human factor Xa using S-2765 as substrate preincubated with antithrombin for 3 mins followed by incubation with factor Xa for 2 mins and further incubated with substrate for 5 mins by absorbance based assay
Coagulation factor X [8] = biological target: T1, Coagulation factor X; assay: Inhibition of human factor Xa using S-2765 as substrate at 7 to 3600 ng/ml preincubated with antithrombin for 3 mins followed by incubation with factor Xa for 2 mins and further incubated with substrate for 5 mins by absorbance based assay; settings: dose 7-3600 ng/ml, time 10.0 min
[9] = Stability of compound assessed as heparanase-mediated compound degradation by measuring retention time at 20 ug incubated overnight by LC-MS analysis (reference value: 17 mins); format: physicochemical; settings: dose 20 µg

T1 sequence (P00742 41-179 limits assumed): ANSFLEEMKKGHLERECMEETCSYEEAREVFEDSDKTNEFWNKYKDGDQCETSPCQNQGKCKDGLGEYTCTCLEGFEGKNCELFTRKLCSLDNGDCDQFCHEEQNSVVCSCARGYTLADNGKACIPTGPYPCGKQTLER
T1 sequence (P00742 235-488 limits assumed): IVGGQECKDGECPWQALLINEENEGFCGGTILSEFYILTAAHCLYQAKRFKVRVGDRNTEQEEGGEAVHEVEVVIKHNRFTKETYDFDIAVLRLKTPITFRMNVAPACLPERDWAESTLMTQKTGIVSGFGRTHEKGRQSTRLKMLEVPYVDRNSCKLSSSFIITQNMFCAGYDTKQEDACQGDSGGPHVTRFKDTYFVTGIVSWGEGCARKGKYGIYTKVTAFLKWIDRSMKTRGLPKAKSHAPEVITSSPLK

Compound | Activity (Mus musculus [1]) [mg] | fold change (FC) (Coagulation factor X [2]) | Activity (Mus musculus [3]) [IU/ml] | Activity (Mus musculus [4]) [mg] | Retention_time [5] [min] | Activity (Mus musculus [6]) [mg] | IC50 (Coagulation factor X [7]) [nM] | inhibition (Coagulation factor X [8]) | Retention_time [9] [min]
O=C(O)[C@H]1O[C@@H](O[C@H]2[C@H](O)[C@@H](NS(=O)(=O)O)[C@@H](O[C@@H]3[C@H](O)[C@@H](OS(=O)(=O)O)[C@H](O[C@H]4[C@H](OS(=O)(=O)O)[C@@H](NS(=O)(=O)O)[C@@H](O[C@H]5[C@H](O)[C@@H](OS(=O)(=O)O)[C@H](O[C@@H]6[C@H](O)[C@@H](NS(=O)(=O)O)[C@@H](O[C@H]7[C@H](O)[C@@H](O)[C@H](Oc8ccc([N+](=O)[O-])cc8)O[C@@H]7C(=O)O)O[C@@H]6COS(=O)(=O)O)O[C@@H]5C(=O)O)O[C@@H]4COS(=O)(=O)O)O[C@H]3C(=O)O)O[C@@H]2COS(=O)(=O)O)[C@H](O)[C@@H](O)[C@@H]1O | 18.8 | 3 | 0.55 | 143 | 15 | 13.9 | 177 |  | 
O=C(O)[C@H]1O[C@@H](Oc2ccc([N+](=O)[O-])cc2)[C@H](O)[C@@H](O)[C@@H]1O[C@H]1O[C@H](COS(=O)(=O)O)[C@@H](O[C@@H]2O[C@@H](C(=O)O)[C@H](O[C@H]3O[C@H](COS(=O)(=O)O)[C@@H](O[C@@H]4O[C@H](C(=O)O)[C@@H](O[C@H]5O[C@H](COS(=O)(=O)O)[C@@H](O)[C@H](O)[C@H]5NS(=O)(=O)O)[C@H](O)[C@H]4O)[C@H](OS(=O)(=O)O)[C@H]3NS(=O)(=O)O)[C@H](O)[C@H]2OS(=O)(=O)O)[C@H](O)[C@H]1NS(=O)(=O)O |  |  |  |  |  |  |  | inactive | 22
